Patent US8653074B2, “Substituted sodium 1H-pyrazol-5-olate” (Bayer Intellectual Property GmbH, priority 2010, dated 2014)

Tests used:
Solubility in water = assay type: physicochemical; details: for solubility thermodynamic at 16 h: thermodynamic from solid, water, 25° C., stirred 16 hours, HPLC
Experimental: Method: Saturated solutions of the test substance were prepared by stirring a suspension in water at 25° C. for 16 hours. The suspensions obtained were then filtered, and the content in the filtrate was determined by HPLC.

[1] = Vapour adsorption and vapour desorption (moisture sorption isotherm); assay type: physicochemical; details: customary environmental conditions (20-35° C., atmospheric pressure)
[2] = as above; assay type: physicochemical; details: for Adsorption / Desorption: 25° C.
Experimental: Vapour Adsorption and Vapour Desorption:
The moisture sorption isotherm was recorded using a Dynamic Vapour Sorption Analyzer IGA Sorp from Hiden Analytical. The measuring temperature was 25° C. There was no sample preparation.

EGLN1/PHD2 = EGLN1/PHD2 (Homo sapiens, UniProt Q9GZT9); experiment: biochemical
Sequence of EGLN1/PHD2 (Q9GZT9 whole entry): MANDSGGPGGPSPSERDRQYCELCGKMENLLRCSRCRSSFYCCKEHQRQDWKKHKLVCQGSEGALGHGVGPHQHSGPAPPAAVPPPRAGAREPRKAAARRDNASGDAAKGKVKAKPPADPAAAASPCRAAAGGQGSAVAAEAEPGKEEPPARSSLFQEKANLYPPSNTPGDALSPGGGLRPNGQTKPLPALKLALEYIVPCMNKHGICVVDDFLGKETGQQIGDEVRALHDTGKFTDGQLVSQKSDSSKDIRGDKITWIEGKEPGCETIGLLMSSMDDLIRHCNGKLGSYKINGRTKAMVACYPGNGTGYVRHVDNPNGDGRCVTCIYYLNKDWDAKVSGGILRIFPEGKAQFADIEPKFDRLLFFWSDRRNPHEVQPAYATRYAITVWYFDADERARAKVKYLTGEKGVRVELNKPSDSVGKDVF
Experimental: Hydroxylated HIF bonds specifically to the von Hippel-Lindau protein-elongin B-elongin C complex (VBC complex). This interaction occurs only if HIF is hydroxylated on a conserved prolyl radical. It is the basis for the biochemical determination of HIF prolyl hydroxylase activity.
A clear 96-well microtiter plate coated with NeutrAvidin HBC (Pierce) is incubated with blocker casein for 30 minutes. The plate is then washed three times with 200 μl each time of wash buffer (50 mM Tris, pH 7.5, 100 mM NaCl, 10% (v/v) blocker casein, 0.05% (v/v) Tween 20) per well. […] This peptide serves as a substrate for the prolyl hydroxylation and is bonded to the microtiter plate. After incubation for 60 minutes, the plate is washed three times with wash buffer, incubated with 1 mM biotin in blocker casein for 30 minutes and then washed again three times with wash buffer. […]
For quantitative determination of the prolyl hydroxylation, a fusion protein which contains both thioredoxin from E. coli and the VBC complex in 80 μl bonding buffer (50 mM Tris, pH 7.5, 120 mM NaCl) is added. […] The amount of bonded VBC complex is determined by measurement of the optical density at 450 nm. […]
Alternatively, a VBC complex coupled to europium (Perkin Elmer) can be used for detection of the prolyl hydroxylation. In this case, the amount of bonded VBC complex is determined by the fluorescence with respect to time.

EGLN2/PHD1 = target: T1, EGLN2/PHD1 (Homo sapiens, UniProt Q96KS0); experiment: Inhibition of the activity of HIF prolyl hydroxylase (VBC complex binding test); assay type: biochemical; details: mean for EGLN2/PHD1
T1 construct: host or cells: cell lysate
T1 sequence (Q96KS0 whole entry): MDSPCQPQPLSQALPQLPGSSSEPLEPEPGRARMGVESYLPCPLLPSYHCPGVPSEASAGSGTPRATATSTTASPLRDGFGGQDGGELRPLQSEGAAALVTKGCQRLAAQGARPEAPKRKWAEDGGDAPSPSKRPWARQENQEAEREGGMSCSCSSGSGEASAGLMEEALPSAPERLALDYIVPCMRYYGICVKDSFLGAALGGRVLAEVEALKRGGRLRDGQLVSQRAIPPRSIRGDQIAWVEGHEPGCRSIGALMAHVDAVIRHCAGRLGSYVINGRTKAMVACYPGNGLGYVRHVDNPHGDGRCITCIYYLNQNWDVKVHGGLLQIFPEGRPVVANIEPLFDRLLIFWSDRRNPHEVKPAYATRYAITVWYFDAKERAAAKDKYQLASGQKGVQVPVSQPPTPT
Experimental: The test is carried out as described [Oehme F., Jonghaus W., Narouz-Ott L., Huetter J., Flamme I., Anal. Biochem. 330 (1), 74-80 (2004)]:
A clear 96-well microtiter plate coated with NeutrAvidin HBC (Pierce) is incubated with blocker casein for 30 minutes. The plate is then washed three times with 200 μl each time of wash buffer (50 mM Tris, pH 7.5, 100 mM NaCl, 10% (v/v) blocker casein, 0.05% (v/v) Tween 20) per well. The peptide biotin-[sequence] (Eurogentec, 4102 Seraing, Belgium) is added in a concentration of 400 nM in 100 μl wash buffer. This peptide serves as a substrate for the prolyl hydroxylation and is bonded to the microtiter plate. After incubation for 60 minutes, the plate is washed three times with wash buffer, incubated with 1 mM biotin in blocker casein for 30 minutes and then washed again three times with wash buffer.
To carry out the prolyl hydroxylase reaction, the peptide substrate bonded to the plate is incubated with a cell lysate containing prolyl hydroxylase for 1 to 60 minutes. […]

[3] = system: recombinant A549 cell line with luciferase reporter under hypoxia-responsible elements; experiment: Cellular, functional in vitro test (luciferase reporter under hypoxia-responsible elements); assay type: cell-based; details: Homo sapiens
Text: 1.b) Cellular, Functional in vitro Test:
The activity of the compounds according to the invention is quantified with the aid of a recombinant cell line. The cell is originally derived from a human lung carcinoma cell line (A549, ATCC: American Type Culture Collection, Manassas, Va. 20108, USA). The test cell line is transfected in a stable manner with a vector which contains the reporter gene of Photinus pyralis luciferase (called luciferase in the following) under the control of an artificial minimal promoter. […] Under the effect of hypoxia (e.g. culturing in the presence of 1% oxygen for 24 hours) or under the action of non-selective dioxygenase inhibitors (e.g. desferroxamine in a concentration of 100 μM, cobalt chloride in a concentration of 100 μM or N-oxalylglycine diethyl ester in a concentration of 1 mM), the test cell line produces luciferase, which can be detected and quantified with the aid of suitable bioluminescence reagents (e.g. Steady-Glo® Luciferase Assay System, Promega Corporation, Madison, Wis. 53711, USA) and a suitable luminometer.
On the day before the test, the cells are plated out in an exactly calculated amount of culture medium (DMEM, 10% FCS, 2 mM glutamine) in 384- or 1,536-well microtiter plates and kept in a cell incubator (96% atmospheric humidity, 5% v/v CO2, 37° C.). […]

Structure (SMILES) | solubility thermodynamic at 16 h (Solubility in water) [mg/mL] | hygroscopicity [1] | Adsorption ([2]; 0% rh) [%] | Adsorption ([2]; 10% rh) [%] | Desorption ([2]; 10% rh) [%] | Adsorption ([2]; 20% rh) [%] | Desorption ([2]; 20% rh) [%] | Adsorption ([2]; 30% rh) [%] | Desorption ([2]; 30% rh) [%] | Adsorption ([2]; 40% rh) [%] | Desorption ([2]; 40% rh) [%] | Adsorption ([2]; 50% rh) [%] | Desorption ([2]; 50% rh) [%] | Adsorption ([2]; 60% rh) [%] | Desorption ([2]; 60% rh) [%] | Adsorption ([2]; 70% rh) [%] | Desorption ([2]; 70% rh) [%] | Adsorption ([2]; 80% rh) [%] | Desorption ([2]; 80% rh) [%] | Adsorption ([2]; 90% rh) [%] | also measured
Oc1c(-n2ccnn2)cnn1-c1cc(N2CCOCC2)ncn1 [Compound of the formula (I), 1-[6-(morpholin-4-yl)pyrimidin-4-yl]-4-(1H-1,2,3-triazol-1-yl)-1H-pyrazol-5-ol, reference compound] | 0.143 | hygroscopic | 0.1 | 0.2 | 0.1 | 0.3 | 0.2 | 4.8 | 4.7 | 5.1 | 5.2 | 5.3 | 5.4 | 5.4 | 5.6 | 5.6 | 5.6 | 5.7 | 5.7 | 5.9 | Desorption ([2]; 5% rh (printed in the 0% rh line)): 0.1% (5% rh); uptake of water ([2]; 20-35° C., atmospheric pressure, relative atmospheric humidity above 20% rh): up to 6 % by weight; Desorption ([2]; 90% rh): 5.9%
[Na+].[O-]c1c(-n2ccnn2)cnn1-c1cc(N2CCOCC2)ncn1 [Compound of the formula (II), sodium 1-[6-(morpholin-4-yl)pyrimidin-4-yl]-4-(1H-1,2,3-triazol-1-yl)-1H-pyrazol-5-olate] | 28 | not hygroscopic | 0 | 0 | 0 | 0.1 | 0 | 0.1 | 0.1 | 0.2 | 0.2 | 0.2 | 0.3 | 0.2 | 0.3 | 0.4 | 0.4 | 0.4 | 0.5 | 0.8 | IC50 (EGLN1/PHD2): 140 nM; IC50 (EGLN2/PHD1): 470 nM; solubility in water compared to the compound of the formula (I) (Solubility in water): higher solubility in water; water content [2]: less than 0.5 % by weight; Desorption ([2]; 0% rh): 0%; change of water content ([2]; 20-35° C., atmospheric pressure, atmospheric humidity of up to 90% rh): less than 0.5 % by weight; Desorption ([2]; 90% rh): 0.8%; EC50 [3]: 7 nM
